# Source: article PMC5218480 (PLoS ONE, 2017)
# System: MV-4-11 cells
# Experiment: Gene expression microarray analysis (Affymetrix PrimeView) and GSEA
# Assay type: cell-based, human
# Parameters: RFU PODN (11730768_x_at) / Fold change /veh PODN (11730768_x_at) / RFU LINC00158 (11744669_a_at) / Fold change /veh LINC00158 (11744669_a_at) / RFU DUSP10 (11751237_a_at) / Fold change /veh DUSP10 (11751237_a_at) / RFU ID3 (11757404_x_at) / Fold change /veh ID3 (11757404_x_at) / RFU PLEKHG5 (11737974_s_at) / Fold change /veh PLEKHG5 (11737974_s_at) / RFU LRRC4B (11730491_at) / Fold change /veh LRRC4B (11730491_at) / RFU GIMAP4 (11747438_a_at) / Fold change /veh GIMAP4 (11747438_a_at) / RFU KRT8 (11758183_x_at) / Fold change /veh KRT8 (11758183_x_at) / RFU CNN1 (11734310_a_at) / Fold change /veh CNN1 (11734310_a_at) / RFU VPS37D (11726825_at) / Fold change /veh VPS37D (11726825_at) / RFU C10orf10 (11716522_x_at) / Fold change /veh C10orf10 (11716522_x_at) / RFU KIR2DL2 /// KIR2DL4 /// KIR2DL5A /// KIR2DL5B /// KIR2DS1 /// KIR2DS2 /// KIR2DS3 /// KIR2DS4 /// KIR3DL3 /// KIR3DL3 /// KIR3DS1 (11738374_at) / Fold change /veh KIR2DL2 /// KIR2DL4 /// KIR2DL5A /// KIR2DL5B /// KIR2DS1 /// KIR2DS2 /// KIR2DS3 /// KIR2DS4 /// KIR3DL3 /// KIR3DL3 /// KIR3DS1 (11738374_at) / RFU C1QL1 (11718748_at) / Fold change /veh C1QL1 (11718748_at) / RFU TMPRSS4 (11747572_a_at) / Fold change /veh TMPRSS4 (11747572_a_at) / RFU HAMP (11756126_x_at) / Fold change /veh HAMP (11756126_x_at) / RFU RNFT2 (11725882_a_at) / Fold change /veh RNFT2 (11725882_a_at) / RFU NR4A2 (11747474_a_at) / Fold change /veh NR4A2 (11747474_a_at) / RFU ABCC12 (11746883_a_at) / Fold change /veh ABCC12 (11746883_a_at) / RFU TMEM136 (11760407_x_at) / Fold change /veh TMEM136 (11760407_x_at) / RFU CLDN22 /// WWC2 (11732394_at) / Fold change /veh CLDN22 /// WWC2 (11732394_at) / RFU HLA-DPB1 (11760878_x_at) / Fold change /veh HLA-DPB1 (11760878_x_at) / RFU SPINT1 (11716480_a_at) / Fold change /veh SPINT1 (11716480_a_at) / RFU GAP43 (11754022_s_at) / Fold change /veh GAP43 (11754022_s_at) / RFU A4GNT (11735810_at) / Fold change /veh A4GNT (11735810_at) / RFU PRB3 (11715151_x_at) / Fold change /veh PRB3 (11715151_x_at) / RFU TUBB4B (11761932_at) / Fold change /veh TUBB4B (11761932_at) / RFU CAPN14 (11732068_a_at) / Fold change /veh CAPN14 (11732068_a_at) / RFU TMCC2 (11721928_a_at) / Fold change /veh TMCC2 (11721928_a_at) / RFU IRGQ (11745062_a_at) / Fold change /veh IRGQ (11745062_a_at) / RFU FAM174B (11720279_a_at) / Fold change /veh FAM174B (11720279_a_at) / RFU TMPRSS4 (11748680_a_at) / Fold change /veh TMPRSS4 (11748680_a_at) / RFU FAM212B (11763350_a_at) / Fold change /veh FAM212B (11763350_a_at) / RFU PLEKHG5 (11743358_a_at) / Fold change /veh PLEKHG5 (11743358_a_at) / RFU ZSCAN30 (11745921_a_at) / Fold change /veh ZSCAN30 (11745921_a_at) / RFU CMKLR1 (11741424_a_at) / Fold change /veh CMKLR1 (11741424_a_at) / RFU LOC101060620 /// MAPK8IP1 (11723275_at) / Fold change /veh LOC101060620 /// MAPK8IP1 (11723275_at) / RFU SPTSSB (11747773_x_at) / Fold change /veh SPTSSB (11747773_x_at) / RFU PRSS12 (11739890_at) / Fold change /veh PRSS12 (11739890_at) / RFU BIN1 (11741810_x_at) / Fold change /veh BIN1 (11741810_x_at) / RFU WNT11 (11732464_a_at) / Fold change /veh WNT11 (11732464_a_at) / RFU C10orf10 (11716521_a_at) / Fold change /veh C10orf10 (11716521_a_at) / RFU C5orf56 (11738089_at) / Fold change /veh C5orf56 (11738089_at) / RFU CYB561 (11721691_x_at) / Fold change /veh CYB561 (11721691_x_at) / RFU ANKRD19P (11752326_a_at) / Fold change /veh ANKRD19P (11752326_a_at) / RFU OR2T12 /// OR2T33 /// OR2T8 (11738714_s_at) / Fold change /veh OR2T12 /// OR2T33 /// OR2T8 (11738714_s_at) / RFU VCAN (11748164_a_at) / Fold change /veh VCAN (11748164_a_at) / RFU JSRP1 (11732532_at) / Fold change /veh JSRP1 (11732532_at) / RFU KRTAP10-11 (11738290_x_at) / Fold change /veh KRTAP10-11 (11738290_x_at) / RFU MYO3A (11730013_a_at) / Fold change /veh MYO3A (11730013_a_at) / RFU EBF3 (11725865_a_at) / Fold change /veh EBF3 (11725865_a_at) / RFU CAMK2N1 (11719241_x_at) / Fold change /veh CAMK2N1 (11719241_x_at) / RFU C5orf56 (11738088_a_at) / Fold change /veh C5orf56 (11738088_a_at) / RFU OLFML3 (11715873_a_at) / Fold change /veh OLFML3 (11715873_a_at) / RFU LOC100653217 /// NTM (11731650_a_at) / Fold change /veh LOC100653217 /// NTM (11731650_a_at) / RFU MAPK11 (11762145_a_at) / Fold change /veh MAPK11 (11762145_a_at) / RFU FIZ1 (11724087_x_at) / Fold change /veh FIZ1 (11724087_x_at) / RFU OASL (11726364_x_at) / Fold change /veh OASL (11726364_x_at) / RFU SOX15 (11748057_x_at) / Fold change /veh SOX15 (11748057_x_at) / RFU CD79A (11719716_a_at) / Fold change /veh CD79A (11719716_a_at) / RFU HIST1H1D (11736915_at) / Fold change /veh HIST1H1D (11736915_at) / RFU CASKIN2 (11723855_a_at) / Fold change /veh CASKIN2 (11723855_a_at) / RFU LOC730098 (11760151_x_at) / Fold change /veh LOC730098 (11760151_x_at) / RFU OR4N2 (11742367_at) / Fold change /veh OR4N2 (11742367_at) / RFU PRRT2 (11749266_a_at) / Fold change /veh PRRT2 (11749266_a_at) / RFU SNX32 (11753110_a_at) / Fold change /veh SNX32 (11753110_a_at) / RFU CDHR5 (11726645_a_at) / Fold change /veh CDHR5 (11726645_a_at) / RFU RCAN1 (11760418_a_at) / Fold change /veh RCAN1 (11760418_a_at) / RFU FAM167A (11723789_a_at) / Fold change /veh FAM167A (11723789_a_at) / RFU FAM26E (11764081_at) / Fold change /veh FAM26E (11764081_at) / RFU ISYNA1 (11749810_s_at) / Fold change /veh ISYNA1 (11749810_s_at) / RFU ACY1 (11761880_at) / Fold change /veh ACY1 (11761880_at) / RFU 11764098_at / Fold change /veh 11764098_at / RFU SAMD14 (11745864_x_at) / Fold change /veh SAMD14 (11745864_x_at) / RFU NPB (11741838_a_at) / Fold change /veh NPB (11741838_a_at) / RFU TMPRSS6 (11731388_a_at) / Fold change /veh TMPRSS6 (11731388_a_at) / RFU KRTAP10-2 (11738614_at) / Fold change /veh KRTAP10-2 (11738614_at) / RFU ARHGAP8 /// PRR5-ARHGAP8 (11727945_x_at) / Fold change /veh ARHGAP8 /// PRR5-ARHGAP8 (11727945_x_at) / RFU KRTAP5-7 /// NADSYN1 (11734609_at) / Fold change /veh KRTAP5-7 /// NADSYN1 (11734609_at) / RFU RASL12 (11751679_a_at) / Fold change /veh RASL12 (11751679_a_at) / RFU CDKN2B (11736163_a_at) / Fold change /veh CDKN2B (11736163_a_at) / RFU PRF1 (11729649_at) / Fold change /veh PRF1 (11729649_at) / RFU, ZNF638 /// ZNF638-IT1 / Fold change vs veh, ZNF638 /// ZNF638-IT1 / RFU, PANK3 / Fold change vs veh, PANK3 / RFU, SH3YL1 / Fold change vs veh, SH3YL1 / RFU, ZEB2 / Fold change vs veh, ZEB2 / RFU, NRIP1 / Fold change vs veh, NRIP1 / RFU, PTTG1IP / Fold change vs veh, PTTG1IP / RFU, CAPN2 / Fold change vs veh, CAPN2 / RFU, MED14 / Fold change vs veh, MED14 / RFU, SNORA58 / Fold change vs veh, SNORA58 / RFU, C1orf63 / Fold change vs veh, C1orf63 / RFU, LRRFIP1 / Fold change vs veh, LRRFIP1 / RFU, NDUFAF7 / Fold change vs veh, NDUFAF7 / RFU, SLC12A2 / Fold change vs veh, SLC12A2 / RFU, IBTK / Fold change vs veh, IBTK / RFU, ESF1 / Fold change vs veh, ESF1 / Fold change vs veh, TMEM50B / RFU, TAOK1 / Fold change vs veh, TAOK1 / RFU, ACBD3 / Fold change vs veh, ACBD3 / RFU, TMA16 / Fold change vs veh, TMA16 / RFU, RWDD3 / Fold change vs veh, RWDD3 / RFU, BCAT1 / Fold change vs veh, BCAT1 / RFU, EDEM3 / Fold change vs veh, EDEM3 / RFU, TMEM33 / Fold change vs veh, TMEM33 / RFU, WDR75 / Fold change vs veh, WDR75 / RFU, AHCTF1 / Fold change vs veh, AHCTF1 / RFU, TFRC / Fold change vs veh, TFRC / RFU, ZDHHC17 / Fold change vs veh, ZDHHC17 / RFU, NOM1 / Fold change vs veh, NOM1 / RFU, ARL8B / Fold change vs veh, ARL8B / RFU, ZBTB11 / Fold change vs veh, ZBTB11 / RFU, TAMM41 / Fold change vs veh, TAMM41 / RFU, KIAA1704 /// LOC100996395 / Fold change vs veh, KIAA1704 /// LOC100996395 / RFU, ING1 / Fold change vs veh, ING1 / RFU, TRMT61B / Fold change vs veh, TRMT61B / RFU, FUBP3 / Fold change vs veh, FUBP3 / RFU, TP53 / Fold change vs veh, TP53 / RFU, TNKS2 / Fold change vs veh, TNKS2 / RFU, ZFP14 / Fold change vs veh, ZFP14 / RFU, ACTR2 / Fold change vs veh, ACTR2 / RFU, PPP3R1 / Fold change vs veh, PPP3R1 / RFU, PIK3R1 / Fold change vs veh, PIK3R1 / RFU, HNRNPA1 / Fold change vs veh, HNRNPA1 / RFU, RNF170 / Fold change vs veh, RNF170 / RFU, ZNF28 / Fold change vs veh, ZNF28 / RFU, RNGTT / Fold change vs veh, RNGTT / RFU, OGT / Fold change vs veh, OGT / RFU, BRD1 / Fold change vs veh, BRD1 / RFU, MARS / Fold change vs veh, MARS / RFU, ZNF655 / Fold change vs veh, ZNF655 / RFU, FAHD1 / Fold change vs veh, FAHD1 / RFU, BDP1 / Fold change vs veh, BDP1 / RFU, LRRCC1 / Fold change vs veh, LRRCC1 / RFU, ARID1A / Fold change vs veh, ARID1A / RFU, ZNF146 / Fold change vs veh, ZNF146 / RFU, ZNF330 / Fold change vs veh, ZNF330 / RFU, GPN3 / Fold change vs veh, GPN3 / RFU, C9orf123 / Fold change vs veh, C9orf123 / RFU, N4BP2L2 / Fold change vs veh, N4BP2L2 / RFU, ARFIP1 / Fold change vs veh, ARFIP1 / RFU, FAM179B / Fold change vs veh, FAM179B / RFU, BCL10 / Fold change vs veh, BCL10 / RFU, UHRF1BP1L / Fold change vs veh, UHRF1BP1L / RFU, BET1 / Fold change vs veh, BET1 / RFU, CNOT2 / Fold change vs veh, CNOT2 / RFU, ZNF268 / Fold change vs veh, ZNF268 / Fold change vs veh, ZNF507 / RFU, DGCR2 / Fold change vs veh, DGCR2 / RFU, WDSUB1 / Fold change vs veh, WDSUB1 / Fold change vs veh, HSP90B1 /// MIR3652 / RFU, ADSS / Fold change vs veh, ADSS / RFU, GK / Fold change vs veh, GK / RFU, ZNF148 / Fold change vs veh, ZNF148 / RFU, TAF9 / Fold change vs veh, TAF9 / RFU, SLC1A5 / Fold change vs veh, SLC1A5 / RFU, SLMO2 / Fold change vs veh, SLMO2 / RFU, ABCC4 / Fold change vs veh, ABCC4 / RFU, LOC101060439 /// RAP1B / Fold change vs veh, LOC101060439 /// RAP1B / RFU, RFX7 / Fold change vs veh, RFX7 / RFU, GTPBP10 / Fold change vs veh, GTPBP10 / RFU, CNEP1R1 / Fold change vs veh, CNEP1R1 / RFU, BIVM-ERCC5 /// ERCC5 / Fold change vs veh, BIVM-ERCC5 /// ERCC5 / RFU, ILF3 / Fold change vs veh, ILF3 / RFU 11762660_at / Fold change /veh 11762660_at / RFU VCAN (11757783_s_at) / Fold change /veh VCAN (11757783_s_at) / RFU DDX43 (11728927_at) / Fold change /veh DDX43 (11728927_at) / RFU KRT8 (11758188_x_at) / Fold change /veh KRT8 (11758188_x_at) / RFU NKD1 (11759106_at) / Fold change /veh NKD1 (11759106_at) / RFU SRD5A1 (11742802_a_at) / Fold change /veh SRD5A1 (11742802_a_at) / RFU TPSAB1 /// TPSB2 (11721975_s_at) / Fold change /veh TPSAB1 /// TPSB2 (11721975_s_at) / RFU GSTM3 (11746129_a_at) / Fold change /veh GSTM3 (11746129_a_at) / RFU IL23R (11737362_x_at) / Fold change /veh IL23R (11737362_x_at) / RFU TMEM51 (11727254_a_at) / Fold change /veh TMEM51 (11727254_a_at) / RFU PIWIL2 (11732686_x_at) / Fold change /veh PIWIL2 (11732686_x_at) / RFU ORM1 (11744905_x_at) / Fold change /veh ORM1 (11744905_x_at) / RFU CCDC152 (11743942_at) / Fold change /veh CCDC152 (11743942_at) / RFU ECM1 (11717891_a_at) / Fold change /veh ECM1 (11717891_a_at) / RFU IL23R (11748794_a_at) / Fold change /veh IL23R (11748794_a_at) / RFU TNFAIP8L3 (11732012_x_at) / Fold change /veh TNFAIP8L3 (11732012_x_at) / RFU MBOAT4 (11741988_at) / Fold change /veh MBOAT4 (11741988_at) / RFU 11764193_at / Fold change /veh 11764193_at / RFU TMEM53 (11763286_at) / Fold change /veh TMEM53 (11763286_at) / RFU MAGEB2 (11727129_at) / Fold change /veh MAGEB2 (11727129_at) / RFU TMEM200A (11744735_a_at) / Fold change /veh TMEM200A (11744735_a_at) / RFU CCDC152 (11751479_a_at) / Fold change /veh CCDC152 (11751479_a_at) / RFU FAM211A (11726209_a_at) / Fold change /veh FAM211A (11726209_a_at) / RFU RGS16 (11746705_a_at) / Fold change /veh RGS16 (11746705_a_at) / RFU VCAN (11755009_s_at) / Fold change /veh VCAN (11755009_s_at) / RFU RHOB (11743442_s_at) / Fold change /veh RHOB (11743442_s_at) / RFU RGS16 (11720943_a_at) / Fold change /veh RGS16 (11720943_a_at) / RFU RGS16 (11720944_at) / Fold change /veh RGS16 (11720944_at) / RFU, VPS4B / Fold change vs veh, VPS4B / RFU, CREB1 / Fold change vs veh, CREB1 / RFU, DNAJC13 / Fold change vs veh, DNAJC13 / RFU, GNAQ / Fold change vs veh, GNAQ / RFU, CDK5R1 / Fold change vs veh, CDK5R1 / RFU, ZRANB3 / Fold change vs veh, ZRANB3 / RFU, CUL4A / Fold change vs veh, CUL4A / RFU, CCNY / Fold change vs veh, CCNY / RFU, UFL1 / Fold change vs veh, UFL1 / RFU, COG3 / Fold change vs veh, COG3 / RFU, DIAPH2 / Fold change vs veh, DIAPH2 / RFU, SKA2 / Fold change vs veh, SKA2 / RFU, AFF3 / Fold change vs veh, AFF3 / RFU, LMF1 / Fold change vs veh, LMF1 / RFU, IPO11 / Fold change vs veh, IPO11 / RFU, DFFB / Fold change vs veh, DFFB / RFU, FOXP1 / Fold change vs veh, FOXP1 / RFU, CARD8 / Fold change vs veh, CARD8 / RFU, STRN3 / Fold change vs veh, STRN3 / RFU, ADK / Fold change vs veh, ADK / RFU, RASSF2 / Fold change vs veh, RASSF2 / RFU, WIPF1 / Fold change vs veh, WIPF1 / RFU, LARP1B / Fold change vs veh, LARP1B / RFU, RASA1 / Fold change vs veh, RASA1 / RFU, RB1 / Fold change vs veh, RB1 / RFU, PPFIA1 / Fold change vs veh, PPFIA1 / RFU, MAT2A / Fold change vs veh, MAT2A / RFU, CCT5 / Fold change vs veh, CCT5 / RFU, WDR92 / Fold change vs veh, WDR92 / RFU, CUX1 / Fold change vs veh, CUX1 / RFU, TTC7A / Fold change vs veh, TTC7A / RFU, TMEM135 / Fold change vs veh, TMEM135 / RFU, DEPTOR / Fold change vs veh, DEPTOR / RFU, CPM / Fold change vs veh, CPM / RFU, DNAJB6 / Fold change vs veh, DNAJB6 / RFU, CACNA2D3 / Fold change vs veh, CACNA2D3 / RFU, DTX4 / Fold change vs veh, DTX4 / RFU, TFCP2 / Fold change vs veh, TFCP2 / RFU, GMCL1 /// GMCL1P1 / Fold change vs veh, GMCL1 /// GMCL1P1 / RFU, AEBP2 / Fold change vs veh, AEBP2 / RFU, SNHG1 /// SNORD22 /// SNORD25 /// SNORD26 /// SNORD27 /// SNORD28 /// SNORD29 /// SNORD31 / Fold change vs veh, SNHG1 /// SNORD22 /// SNORD25 /// SNORD26 /// SNORD27 /// SNORD28 /// SNORD29 /// SNORD31 / Fold change (Aza/veh), C12orf56 (ProbeSet 11735607_a_at) / Fold change (ACY-1035/veh), C12orf56 (ProbeSet 11735607_a_at) / Fold change (Aza/veh), FGFR1OP (ProbeSet 11751329_s_at) / Fold change (ACY-1035/veh), FGFR1OP (ProbeSet 11751329_s_at) / Fold change (Aza/veh), VPS36 (ProbeSet 11739960_a_at) / Fold change (ACY-1035/veh), VPS36 (ProbeSet 11739960_a_at) / RFU SYPL1 (11715823_x_at) / Fold change /veh SYPL1 (11715823_x_at) / RFU IGFBP7 (11715501_s_at) / Fold change /veh IGFBP7 (11715501_s_at) / RFU REEP3 (11722064_at) / Fold change /veh REEP3 (11722064_at) / RFU IGLL1 (11728026_x_at) / Fold change /veh IGLL1 (11728026_x_at): dose or concentration left out as unconfirmed
# Settings: MV-4-11 cells, 48 hours
smiles,measurement,value
Nc1ccc(-c2cccs2)cc1NC(=O)c1ccc2c(c1)cc(C1CC1)n2CCN1CCOCC1 [ACY-1035],Fold change /veh TMEM51 (11727254_a_at),0.98
